The record followed here is US20250290110A1, “MOGROSIDE COMPOSITIONS AND METHODS OF PRODUCING SAME” (Elo Life Systems, priority 2024, published 2025).

The structures appear in SMILES notation. Entries after “also recorded” stand apart in the source; their conditions may differ.

Assay type in all cases: in vivo, human
The nature of assay [1]: Descriptive analysis of sweetener attributes, sensory panel, 15-cm line scale. The settings on record: for Astringent, average intensity score / Bitter Linger, average intensity score / Bitterness, average intensity score / Body, average intensity score / Caramel, average intensity score / Fruity, average intensity score / Licorice, average intensity score / Sweet Linger, average intensity score / Sweetness, average intensity score: about 6 SEV in spring water, 0=low, 60=high; for taste quality in words: sensory panel. From the text: The same samples described above were presented to a panel of 6-9 experienced judges for descriptive analysis. Solutions were blind-coded with random 3-digit codes and served at room temperature for evaluation. Panelists individually scored attributes of each sample, such as sweetness intensity, bitterness, astringency, and the presence of side flavors such as licorice or fruitiness. Scores were based on a 15-cm line scale marked with evenly spaced 5-point increments from low (0) to high (60). Samples were evaluated in duplicate. Water and saltine crackers were provided for rinsing between samples.
(§1) A solution of V90 was made at 410 ppm in spring water (Ice Mountain, retail) to be about 6 SEV. A second solution was made at about 6 SEV of purified mogroside-V (Chem Faces, CFS202202) at 325 ppm. A panel of 7-8 trained judges evaluated the temporal properties and taste attributes of each sample, including blind duplicates, in the same manner described previously in the Mogroside Blend 80/15/5 Taste Quality sections.
The panel also evaluated the intensity of several sensory attributes such as bitterness, astringency, caramel flavor, and fruitiness. The same 15-cm line scale was used for scoring, labeled from low (0) to high (60) with evenly spaced 5-point increments. The samples were served in 4-oz soufflé cups that were labeled with random 3-digit codes. Samples were evaluated at room temperature and included blind duplicates. Water and saltine crackers were provided for rinsing between samples. A 400-ppm solution of V90 (Huacheng Bio, LHGE-230401) was tasted as a reference at the beginning of the descriptive analysis session for calibration verification among panelists.

A short description of assay [2]: Sweetness concentration response curve against sucrose reference standards, trained sensory panel. The settings on record: for Potency at 5 SEV / potency, times as sweet as sucrose at 5 SEV: spring water, room temperature; for potency, times as sweet as sucrose at 5 SEV: at 5 sucrose equivalent value (SEV). On the procedure:
A blend composed of 80% purified mogroside-V (Chem Faces, CFS202202), 15% 11-oxo-mogroside-V (Chem Faces, CFS202201), and 5% mogroside IIIA-1 (Chem Faces, CFS202201) was diluted to six different concentrations (from 100 ppm to 650 ppm) in spring water (Ice Mountain, retail). For each solution, a set of five reference standards of sucrose dissolved in water in 0.5% (w/w) concentration increments was also prepared. Each concentration of the mogroside blend was evaluated by 6-8 trained judges. Samples were presented in 4-oz soufflé cups at room temperature, and the test sample was labeled with a random 3-digit code. Panelists tasted the blind-coded sample compared to the set of reference samples to determine the sweetness intensity score to the nearest 0.1 unit. Each concentration was evaluated in duplicate. The sweetness intensity scores were then plotted against the mogroside blend concentration to make a concentration response curve, and the best fitting Beidler equation was generated.
V90 is a 90% pure mogroside V containing about 6% 11-oxo mogroside-V. Five different concentrations of V90 (Huacheng Bio, LHGE-230401), ranging from 100 ppm to 500 ppm, were diluted in spring water (Ice Mountain, retail). Each dilution was presented to a panel of 7-8 judges experienced in evaluating sweeteners and was accompanied by a range of five sucrose solution reference standards bracketing the sweetness intensity of the test sample in 0.5% (w/w) increments. Panelists assigned a sweetness intensity score to each test sample, including blind duplicates, to the nearest 0.1 unit. All samples were served at room temperature in 4-oz soufflé cups with the test samples labeled with random 3-digit codes. Water and saltine crackers were provided for rinsing between samples.
Both individual mogrosides were also evaluated at five different concentrations in spring water (Ice Mountain, retail) for sweetness intensity. 11-oxo-mogroside was diluted to concentrations ranging from 200 ppm to 600 ppm and mogroside IIIA-1 was diluted to concentrations from 100 to 500 ppm. For each concentration, a set of five sucrose solution reference standards were prepared in 0.5% (w/w) increments to approximately bracket the sweetness intensity of the test sample. A panel of 6-8 trained judges evaluated each test sample in duplicate, accompanied by the corresponding reference standards, and assigned a sweetness intensity score to the sample to the nearest 0.1 unit. Samples were presented in 4-oz soufflé cups at room temperature, and the test sample was labeled with a random 3-digit code. The sweetness intensity scores were then plotted as a function of mogroside concentration to make a concentration response curve, and the best fitting Beidler equation was generated.
The error bars around each point represent 1 standard deviation. The data fit a Beidler equation with an r2 value of 0.961. The equation for this line is:
SEV=16.08*C/(521.2+C) • where SEV is the % sucrose equivalent sweetness as determined by sensory panel and C is the concentration of mogroside blend in ppm or mg/L.
P=SEV*10,000/C • where C is the concentration of the mogroside blend in ppm or mg/L and SEV is the % sucrose equivalent sweetness determined by sensory panel.

Assay [3] can be described thus: Temporal properties: onset of sweetness, time to maximum sweetness, aftertaste decay, trained sensory panel. The conditions noted are these: for sweetness decay time after expectorating: solutions at about 6 SEV. On the procedure: Equi-sweet solutions at about 6 SEV were made in spring water (Ice Mountain, retail) of the following sweeteners: purified mogroside-V (Chem Faces, CFS202202), rebaudioside M (95%, Tate & Lyle, lot #1802-2302-1), rebaudioside A (95%, Tate & Lyle, 210617-01), and monk fruit (50% mogroside V, Tate & Lyle, 45GF220305). Another solution was prepared at about 6 SEV of a blend composed of 80% purified mogroside-V (Chem Faces, CFS202202), 15% 11-oxo-mogroside-V (Chem Faces, CFS202201), and 5% mogroside IIIA-1 (Chem Faces, CFS202201). The concentration of each solution can be found in Table 7.
A set of samples of each solution was evaluated by a panel of 7-9 trained judges. Panelists measured the time to onset of sweetness and time to reach maximum sweetness using a timer. Sweetness decay after expectorating was measured by rating sweetness intensity every 5 seconds on a 15-cm line scale graduated in evenly spaced 5-point increments and labeled low (0) to high (60). Samples were served at room temperature in 4-oz soufflé cups, labeled with random 3-digit codes. Water and saltine crackers were provided for rinsing between samples. Blind duplicates were evaluated in a second panel under the same conditions.
as §1
Two individual mogroside components of the blend, 11-oxo mogroside-V (Chem Faces, […]) and mogroside III-A1 (Chem Faces, 202301), were evaluated separately in spring water (Ice Mountain, retail) to determine the concentration needed to reach approximately 6 SEV. Solutions were then prepared at 3600 ppm of 11-oxo-mogroside-V and 600 ppm mogroside IIIA-1.
A panel of 6-7 trained judges evaluated the solutions by measuring the time to onset of sweetness and time to reach maximum sweetness using a timer. Decay of lingering aftertaste after expectorating was measured by rating sweetness intensity every 5 seconds on a 15-cm line scale graduated in evenly spaced 5-point increments and labeled low (0) to high (60). Samples were served at room temperature in 4-oz soufflé cups, labeled with random 3-digit codes, including blinded duplicates. Water and saltine crackers were provided for rinsing between samples.

For `C[C@H](CC[C@@H](O[C@@H]1O[C@H](CO[C@@H]2O[C@H](CO)[C@@H](O)[C@H](O)[C@H]2O)[C@@H](O)[C@H](O)[C@H]1O[C@@H]1O[C@H](CO)[C@@H](O)[C@H](O)[C@H]1O)C(C)(C)O)[C@H]1CC[C@@]2(C)[C@@H]3CC=C4[C@@H](CC[C@H](O[C@@H]5O[C@H](CO[C@@H]6O[C@H](CO)[C@@H](O)[C@H](O)[C@H]6O)[C@@H](O)[C@H](O)[C@H]5O)C4(C)C)[C@]3(C)C(=O)C[C@]12C` [11-oxo-mogroside V], in assay [1], the “Astringent, average intensity score” value is reported as 4.3; the “Bitter Linger, average intensity score” value is recorded as 0.7; the “Bitterness, average intensity score” value came out at 7.7; the “Body, average intensity score” value came to 12.7. For the same molecule, in assay [1], the “Caramel, average intensity score” value was determined as 4.8; the “Fruity, average intensity score” value was found to be 2.1; the “Licorice, average intensity score” value is 2.1; the “Sweet Linger, average intensity score” value is on record as 17.1. In assay [1], the “Sweetness, average intensity score” value was determined as 37.1 and the “taste quality in words” value was “slight bitterness”. Also, the “SEV at 1,000 ppm” value in assay [2] (1,000 ppm, from Beidler curve) is on record as 4.2 SEV. In assay [2], the “Potency at 5 SEV” value came to 28×. In addition, the “potency, times as sweet as sucrose at 5 SEV” value in assay [2] (listed as 11-oxo mogroside-V) is reported as “approximately 28 times as sweet as sucrose”. In addition, the “potency, times as sweet as sucrose at 5 SEV” value in assay [2] (listed as 11-oxo-mogroside-V) stood at 28 times as sweet as sucrose. Also, in assay [3], the “sweetness decay time after expectorating” value is given as “about 45 seconds”.

Turning to `C[C@H](CC[C@@H](O[C@@H]1O[C@H](CO[C@@H]2O[C@H](CO)[C@@H](O)[C@H](O)[C@H]2O)[C@@H](O)[C@H](O)[C@H]1O[C@@H]1O[C@H](CO)[C@@H](O)[C@H](O)[C@H]1O)C(C)(C)O)[C@H]1CC[C@@]2(C)[C@@H]3CC=C4[C@@H](CC[C@H](O)C4(C)C)[C@]3(C)[C@H](O)C[C@]12C` [Mogroside IIIA-1, mogroside IIIA-1], in assay [1], the “Astringent, average intensity score” value is reported as 5.1; the “Bitter Linger, average intensity score” value was 37.3; the “Bitterness, average intensity score” value was determined as 37.3; the “Body, average intensity score” value came to 12.1. Moreover, in assay [1], the “Caramel, average intensity score” value was 1.9; the “Fruity, average intensity score” value stood at 0.7; the “Licorice, average intensity score” value is on record as 2.2; the “Sweet Linger, average intensity score” value was 5.7. For the same molecule, in assay [1], the “Sweetness, average intensity score” value is 34.5 and the “taste quality in words” value was “strongly bitter with a strong lingering bitter aftertaste”. Moreover, the “taste quality in words” value in assay [1] (listed as mogroside IIIA-1) is “strong bitter aftertaste that almost immediately overwhelmed any lingering sweet sensation”. The “Potency at 5 SEV” value in assay [2] amounted to 71×. Also, in assay [2] (in vivo), the “SEV at which the concentration response curve plateaus” value is listed as 4-5 SEV and the “concentration at which sweetness plateaus” value is given as “about 500 ppm”. Moreover, the “duration of bitter taste after expectorating” value in assay [3] (600 ppm, about 6 SEV) is on record as “more than 60 seconds”.

For `C=C1C[C@@]23CC[C@H]4[C@@](C)(CCC[C@@]4(C)C(=O)O[C@@H]4O[C@H](CO)[C@@H](O)[C@H](O)[C@H]4O)[C@@H]2CC[C@]1(O[C@@H]1O[C@H](CO)[C@@H](O)[C@H](O[C@@H]2O[C@H](CO)[C@@H](O)[C@H](O)[C@H]2O)[C@H]1O[C@@H]1O[C@H](CO)[C@@H](O)[C@H](O)[C@H]1O)C3` [Rebaudioside A, rebaudioside A], the “taste quality in words” value in assay [1] is given as “a bitter taste continued to linger; also recorded: notable bitterness compared to the other sweeteners”. Further, in assay [3], the “sweetness decay time after expectorating” value was “about 40 seconds”.

In the case of `C=C1C[C@@]23CC[C@H]4[C@@](C)(CCC[C@@]4(C)C(=O)O[C@@H]4O[C@H](CO)[C@@H](O)[C@H](O[C@@H]5O[C@H](CO)[C@@H](O)[C@H](O)[C@H]5O)[C@H]4O[C@@H]4O[C@H](CO)[C@@H](O)[C@H](O)[C@H]4O)[C@@H]2CC[C@]1(O[C@@H]1O[C@H](CO)[C@@H](O)[C@H](O[C@@H]2O[C@H](CO)[C@@H](O)[C@H](O)[C@H]2O)[C@H]1O[C@@H]1O[C@H](CO)[C@@H](O)[C@H](O)[C@H]1O)C3` [Rebaudioside M, rebaudioside M], the “sweetness decay time after expectorating” value in assay [3] was found to be 50 s.
